This is an account of results in patent publication US10988523B2, “Modified lipidated Relaxin B chain peptides and their therapeutic use” (Sanofi, priority 2018, dated 2021).

Structures are written as SMILES. *1 amine or outer side, *2 acyl side, *3 side chain or, on linkers, in order; H or OH if unused. Where a SMILES comes first, the peptide text is derived from it. Side-chain parts run from the residue outwards. [ ]: non-standard residue; d: D form. The star is where a group is joined. PEG28 = NCCOCCOCCOCCOCCOCCOCCOCCOCCOCCOCCOCCOCCOCCOCCOCCOCCOCCOCCOCCOCCOCCOCCOCCOCCOCCOCCOCCOCCC(=O)O; PEG24 = NCCOCCOCCOCCOCCOCCOCCOCCOCCOCCOCCOCCOCCOCCOCCOCCOCCOCCOCCOCCOCCOCCOCCOCCOCCC(=O)O; γGlu = O=C(O)[C@H](CCC(=O)[*:2])N[*:1]; Stearoyl = CCCCCCCCCCCCCCCCCC(=O)*; Palmitoyl = CCCCCCCCCCCCCCCC(=O)*; Nle = CCCC[C@H](N)C(=O)O; AEEA = NCCOCCOCC(=O)O; Aib = CC(C)(N)C(=O)O

The assay concerns the target T1, RXFP1 (Homo sapiens, UniProt Q9HBX9).
T1 construct: OVCAR5 cells expressing endogenous RXFP1; endogenous in cells; host or cells: OVCAR5 cells
T1 sequence (Q9HBX9 1-757): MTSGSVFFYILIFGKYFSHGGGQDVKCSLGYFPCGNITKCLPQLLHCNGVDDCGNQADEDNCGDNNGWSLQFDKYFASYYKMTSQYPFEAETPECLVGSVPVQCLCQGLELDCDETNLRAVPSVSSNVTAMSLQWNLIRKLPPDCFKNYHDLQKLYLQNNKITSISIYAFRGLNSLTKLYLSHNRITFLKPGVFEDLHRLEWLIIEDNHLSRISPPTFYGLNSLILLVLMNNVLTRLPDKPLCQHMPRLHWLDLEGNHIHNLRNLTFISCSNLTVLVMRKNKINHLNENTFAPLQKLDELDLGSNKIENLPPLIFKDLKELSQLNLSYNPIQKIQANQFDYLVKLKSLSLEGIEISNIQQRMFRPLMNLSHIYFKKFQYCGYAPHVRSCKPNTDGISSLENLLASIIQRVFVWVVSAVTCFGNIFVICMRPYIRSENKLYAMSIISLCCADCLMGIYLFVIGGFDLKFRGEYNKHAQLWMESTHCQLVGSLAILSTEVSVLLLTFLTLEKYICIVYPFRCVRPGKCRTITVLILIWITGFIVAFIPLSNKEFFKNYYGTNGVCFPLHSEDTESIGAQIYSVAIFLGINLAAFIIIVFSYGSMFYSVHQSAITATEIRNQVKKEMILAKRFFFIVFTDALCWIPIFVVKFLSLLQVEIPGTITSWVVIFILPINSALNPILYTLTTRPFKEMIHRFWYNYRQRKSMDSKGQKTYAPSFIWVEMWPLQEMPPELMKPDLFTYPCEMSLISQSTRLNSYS
The assay can be described thus: OVCAR5 cAMP assay (HTRF), RXFP1 agonist activity. The conditions noted are these: OVCAR-5; maximal cAMP relative to H2-relaxin maximum (100%); read-out: EMax, OVCAR 5 cells (cAMP). The format is cell-based. The method, boiled down:
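cAMP accumulation readout: after 1 mM IBMX for 40 min, endogenous-RXFP1 OVCAR5 cells got rising peptide concentrations without FCS, 30 min, 37° C, then lysis with HTRF cAMP reagents. Nonlinear regression gave EC50; Emax expressed relative to H2-relaxin maximum, same occasion.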
(In general: Changes in cAMP serve as a functional read-out for many G protein-coupled receptors.)
As for `CCCCCCCCCCCCCCCC(=O)N[C@@H](CCC(=O)N[C@@H](CCC(=O)N[C@@H](CCC(=O)NCCCC[C@H](NC(=O)CCOCCOCCOCCOCCOCCOCCOCCOCCOCCOCCOCCOCCOCCOCCOCCOCCOCCOCCOCCOCCOCCOCCOCCOCCNC(=O)[C@H](CCCCN)NC(=O)[C@H](CCCNC(=N)N)NC(=O)C(C)(C)NC(=O)[C@H](CO)NC(=O)[C@H](Cc1c[nH]c2ccccc12)NC(=O)[C@@H](NC(=O)[C@H](CO)NC(=O)[C@H](CCSC)NC(=O)CNC(=O)[C@H](CCC(=O)O)NC(=O)C(C)(C)NC(=O)C(C)(C)NC(=O)[C@@H](NC(=O)[C@H](CCC(N)=O)NC(=O)[C@H](C)NC(=O)[C@H](CCCNC(=N)N)NC(=O)[C@@H](NC(=O)[C@H](CCCCN)NC(=O)[C@H](CCC(=O)O)NC(=O)[C@H](CCCNC(=N)N)NC(=O)CNC(=O)[C@H](CCC(=O)O)NC(=O)[C@H](CC(C)C)NC(C)=O)C(C)C)[C@@H](C)CC)[C@@H](C)O)C(N)=O)C(=O)O)C(=O)O)C(=O)O` [compound 47] (Ac-LEGREKVRAQI[Aib][Aib]EGMSTWS[Aib]RK[PEG24]K([γGlu-γGlu-γGlu-Palmitoyl])-NH2), the maximal response (Emax) amounted to 100%.

Regarding `CCCCCCCCCCCCCCCCCC(=O)N[C@@H](CCC(=O)N[C@@H](CCC(=O)N[C@@H](CCC(=O)NCCCC[C@H](NC(=O)CCOCCOCCOCCOCCOCCOCCOCCOCCOCCOCCOCCOCCOCCOCCOCCOCCOCCOCCOCCOCCOCCOCCOCCOCCOCCOCCOCCOCCNC(=O)[C@H](CCCCN)NC(=O)[C@H](CCCCN)NC(=O)[C@H](CCCNC(=N)N)NC(=O)C(C)(C)NC(=O)[C@H](CO)NC(=O)[C@H](Cc1c[nH]c2ccccc12)NC(=O)[C@@H](NC(=O)[C@H](CO)NC(=O)[C@H](CCCC)NC(=O)CNC(=O)[C@H](CCC(=O)O)NC(=O)C(C)(C)NC(=O)C(C)(C)NC(=O)[C@@H](NC(=O)[C@H](CCCCNC(C)=O)NC(=O)[C@H](C)NC(=O)[C@H](CCCNC(=N)N)NC(=O)[C@@H](NC(=O)[C@H](CCCCN)NC(=O)[C@H](CCC(=O)O)NC(=O)[C@H](CCCNC(=N)N)NC(=O)CNC(=O)[C@H](CCC(=O)O)NC(=O)[C@H](CC(C)C)NC(C)=O)C(C)C)[C@@H](C)CC)[C@@H](C)O)C(N)=O)C(=O)O)C(=O)O)C(=O)O` [compound 48] (Ac-LEGREKVRAK(Ac)I[Aib][Aib]EG[Nle]STWS[Aib]RKK[PEG28]K([γGlu-γGlu-γGlu-Stearoyl])-NH2), the maximum response (Emax) was 99%.

In the case of `CCCCCCCCCCCCCCCCCC(=O)N[C@@H](CCC(=O)N[C@@H](CCC(=O)N[C@@H](CCC(=O)NCCCC[C@H](NC(=O)CCOCCOCCOCCOCCOCCOCCOCCOCCOCCOCCOCCOCCOCCOCCOCCOCCOCCOCCOCCOCCOCCOCCOCCOCCOCCOCCOCCOCCNC(=O)[C@H](CCCCNC(C)=O)NC(=O)[C@H](CCCCN)NC(=O)[C@H](CCCNC(=N)N)NC(=O)C(C)(C)NC(=O)[C@H](CO)NC(=O)[C@H](Cc1c[nH]c2ccccc12)NC(=O)[C@@H](NC(=O)[C@H](CO)NC(=O)[C@H](CCCC)NC(=O)CNC(=O)[C@H](CCC(=O)O)NC(=O)C(C)(C)NC(=O)C(C)(C)NC(=O)[C@@H](NC(=O)[C@H](CCCCNC(C)=O)NC(=O)[C@H](C)NC(=O)[C@H](CCCNC(=N)N)NC(=O)[C@@H](NC(=O)[C@H](CCCCN)NC(=O)[C@H](CCC(=O)O)NC(=O)[C@H](CCCNC(=N)N)NC(=O)CNC(=O)[C@H](CCC(=O)O)NC(=O)[C@H](CC(C)C)NC(C)=O)C(C)C)[C@@H](C)CC)[C@@H](C)O)C(N)=O)C(=O)O)C(=O)O)C(=O)O` [compound 49] (Ac-LEGREKVRAK(Ac)I[Aib][Aib]EG[Nle]STWS[Aib]RKK(Ac)[PEG28]K([γGlu-γGlu-γGlu-Stearoyl])-NH2), the maximal effect (Emax) stood at 106%.

On to `CCCCCCCCCCCCCCCC(=O)NCCOCCOCC(=O)NCCCC[C@H](NC(=O)[C@H](CCCCN)NC(=O)[C@H](CCCNC(=N)N)NC(=O)C(C)(C)NC(=O)[C@H](CO)NC(=O)[C@H](Cc1c[nH]c2ccccc12)NC(=O)[C@@H](NC(=O)[C@H](CO)NC(=O)[C@H](CCCC)NC(=O)CNC(=O)[C@H](CCC(=O)O)NC(=O)C(C)(C)NC(=O)C(C)(C)NC(=O)[C@@H](NC(=O)[C@H](CCC(N)=O)NC(=O)[C@H](C)NC(=O)[C@H](CCCNC(=N)N)NC(=O)[C@@H](NC(=O)[C@H](CCCCN)NC(=O)[C@H](CCC(=O)O)NC(=O)[C@H](CCCNC(=N)N)NC(=O)CNC(=O)[C@H](CCC(=O)O)NC(=O)[C@H](CC(C)C)NC(C)=O)C(C)C)[C@@H](C)CC)[C@@H](C)O)C(N)=O` [compound 50] (Ac-LEGREKVRAQI[Aib][Aib]EG[Nle]STWS[Aib]RKK([AEEA-Palmitoyl])-NH2), for which the Emax worked out at 95%.

`CCCCCCCCCCCCCCCCCC(=O)NCCOCCOCC(=O)NCCOCCOCC(=O)NCCCC[C@H](NC(=O)[C@H](CCCCNC(C)=O)NC(=O)[C@H](CCCCN)NC(=O)[C@H](CCCNC(=N)N)NC(=O)C(C)(C)NC(=O)[C@H](CO)NC(=O)[C@H](Cc1c[nH]c2ccccc12)NC(=O)[C@@H](NC(=O)[C@H](CO)NC(=O)[C@H](CCCC)NC(=O)CNC(=O)[C@H](CCC(=O)O)NC(=O)C(C)(C)NC(=O)C(C)(C)NC(=O)[C@@H](NC(=O)[C@H](CCC(N)=O)NC(=O)[C@H](C)NC(=O)[C@H](CCCNC(=N)N)NC(=O)[C@@H](NC(=O)[C@H](CCCCN)NC(=O)[C@H](CCC(=O)O)NC(=O)[C@H](CCCNC(=N)N)NC(=O)CNC(=O)[C@H](CCC(=O)O)NC(=O)[C@H](CC(C)C)NC(C)=O)C(C)C)[C@@H](C)CC)[C@@H](C)O)C(N)=O` [compound 51] (Ac-LEGREKVRAQI[Aib][Aib]EG[Nle]STWS[Aib]RKK(Ac)K([AEEA-AEEA-Stearoyl])-NH2): the maximal response (Emax) came out at 100%.

For the molecule `CCCCCCCCCCCCCCCCCC(=O)NCCOCCOCC(=O)NCCOCCOCC(=O)NCCOCCOCC(=O)NCCCC[C@H](NC(=O)[C@H](CCCCNC(C)=O)NC(=O)[C@H](CCCCN)NC(=O)[C@H](CCCNC(=N)N)NC(=O)C(C)(C)NC(=O)[C@H](CO)NC(=O)[C@H](Cc1c[nH]c2ccccc12)NC(=O)[C@@H](NC(=O)[C@H](CO)NC(=O)[C@H](CCCC)NC(=O)CNC(=O)[C@H](CCC(=O)O)NC(=O)C(C)(C)NC(=O)C(C)(C)NC(=O)[C@@H](NC(=O)[C@H](CCC(N)=O)NC(=O)[C@H](C)NC(=O)[C@H](CCCNC(=N)N)NC(=O)[C@@H](NC(=O)[C@H](CCCCN)NC(=O)[C@H](CCC(=O)O)NC(=O)[C@H](CCCNC(=N)N)NC(=O)CNC(=O)[C@H](CCC(=O)O)NC(=O)[C@H](CC(C)C)NC(C)=O)C(C)C)[C@@H](C)CC)[C@@H](C)O)C(N)=O` [compound 52] (Ac-LEGREKVRAQI[Aib][Aib]EG[Nle]STWS[Aib]RKK(Ac)K([AEEA-AEEA-AEEA-Stearoyl])-NH2), the maximum response (Emax) is 98%.

Regarding `CCCCCCCCCCCCCCCC(=O)N[C@@H](CCC(=O)NCCOCCOCC(=O)NCCCC[C@H](NC(=O)[C@H](CCCCN)NC(=O)[C@H](CCCNC(=N)N)NC(=O)C(C)(C)NC(=O)[C@H](CO)NC(=O)[C@H](Cc1c[nH]c2ccccc12)NC(=O)[C@@H](NC(=O)[C@H](CO)NC(=O)[C@H](CCCC)NC(=O)CNC(=O)[C@H](CCC(=O)O)NC(=O)C(C)(C)NC(=O)C(C)(C)NC(=O)[C@@H](NC(=O)[C@H](CCC(N)=O)NC(=O)[C@H](C)NC(=O)[C@H](CCCNC(=N)N)NC(=O)[C@@H](NC(=O)[C@H](CCCCN)NC(=O)[C@H](CCC(=O)O)NC(=O)[C@H](CCCNC(=N)N)NC(=O)CNC(=O)[C@H](CCC(=O)O)NC(=O)[C@H](CC(C)C)NC(C)=O)C(C)C)[C@@H](C)CC)[C@@H](C)O)C(N)=O)C(=O)O` [compound 53] (Ac-LEGREKVRAQI[Aib][Aib]EG[Nle]STWS[Aib]RKK([AEEA-γGlu-Palmitoyl])-NH2), the Emax is 97%.

Take `CCCCCCCCCCCCCCCC(=O)N[C@@H](CCC(=O)N[C@@H](CCC(=O)NCCOCCOCC(=O)NCCCC[C@H](NC(=O)[C@H](CCCCN)NC(=O)[C@H](CCCNC(=N)N)NC(=O)C(C)(C)NC(=O)[C@H](CO)NC(=O)[C@H](Cc1c[nH]c2ccccc12)NC(=O)[C@@H](NC(=O)[C@H](CO)NC(=O)[C@H](CCCC)NC(=O)CNC(=O)[C@H](CCC(=O)O)NC(=O)C(C)(C)NC(=O)C(C)(C)NC(=O)[C@@H](NC(=O)[C@H](C)NC(=O)[C@H](C)NC(=O)[C@H](CCCNC(=N)N)NC(=O)[C@@H](NC(=O)[C@H](CCCCN)NC(=O)[C@H](CCC(=O)O)NC(=O)[C@H](CCCNC(=N)N)NC(=O)CNC(=O)[C@H](CCC(=O)O)NC(=O)[C@H](CC(C)C)NC(=O)[C@H](CCC(=O)O)NC(C)=O)C(C)C)[C@@H](C)CC)[C@@H](C)O)C(N)=O)C(=O)O)C(=O)O` [compound 54] (Ac-ELEGREKVRAAI[Aib][Aib]EG[Nle]STWS[Aib]RKK([AEEA-γGlu-γGlu-Palmitoyl])-NH2): the maximal response (Emax) is 98%.

The Emax is the greatest response seen or fitted, relative to the assay's reference.
